According to US20240174718A1, “RYANODINE RECEPTOR INHIBITOR COMPOUNDS AND METHODS RELATING THERETO” (Vanderbilt University, priority 2022, published 2024):

What was measured:
Casq2-/- mice = test: Catecholamine-induced arrhythmia challenge (ECG) in CPVT mice; type: in vivo, mouse
Procedure: Triple crossover study design for in vivo arrhythmia challenge. N=22 Casq2^−/− mice were randomly assigned to vehicle (DMSO), 3 mg/kg, or 30 mg/kg ent-B1 and crossed over twice with one-week washouts between treatment. Mice underwent catecholamine-induced arrhythmia challenge with isoproterenol 15 min after intraperitoneal drug administration. […] Ectopic beats are denoted by p (PVC), c (couplet), and vt (ventricular tachycardia). Normal sinus beats are not marked. […] Individual data are shown with median and interquartile range. Bonferroni-adjusted P values by pairwise Wilcoxon matched-pairs signed rank test. *P=0.020 vs Veh; #P=0.039 vs Veh. […] Bonferroni-adjusted P values by pairwise Wilcoxon matched- pairs signed rank test. #P=0.0058 vs Vehicle.
ECG recording—Nine male and thirteen female Casq2^−/− mice 17-20 weeks old were randomly assigned to a three-by-three crossover design such that every treatment sequence was sampled. Mice were pretreated with intraperitoneal injection of vehicle (DMSO), 3 mg/kg ent-B1, or 30 mg/kg of ent-B1 fifteen minutes prior to baseline ECG recording. Mice were then injected with 3 mg/kg isoproterenol intraperitoneally. Recordings were continued for 5 minutes or for 1 minute after cessation of ventricular ectopy. A washout period of one week was used between treatments. The Vanderbilt Institutional Animal Care and Use Committee (IACUC) approved the use of mice in these studies (protocol #M1900057-01). Animals had free access to food and water.
ECG analysis—LabChart (AD Instruments, Inc) was used to analyze ECG recordings by a reviewer blinded to treatment dose. ECG records were examined to quantify premature ventricular contractions (PVCs), duration of ventricular tachycardia, heart rate, and baseline ECG parameters (PR, QRS and QT interval). Arrhythmias were scored on a five point ordinal scale based on the number of PVCs with the following criteria: 1) zero point for no PVCs; 2) one point for isolated PVCs; 3) two points for bigeminy (alternating sinus beats and PVCs); 4) three points for couplets (two consecutive PVCs); and 5) four points for three or more consecutive PVCs (ventricular tachycardia).
(§1) All tests were two-sided and a p-value cutoff of <0.05 was used to denote significance. Concentration-response curves for RyR2 single-channel, [^3H]ryanodine ligand binding and intact myocyte assays were generated using non-linear regression with the equation: Y=Bottom+(Top−Bottom)/(1+(IC50/X)^HillSlope) using least square regression, no weighting, and no constrains on the parameters. The distributions of relative RyR2 open probability at each [ent-B1] were normalized by taking the log of each sample. For the 3×3 crossover in vivo ECG study, a pre-test was conducted using a mixed model with fixed effects of sequence and period; mice were treated as random effects.
Casq2^−/− mice are a validated model for preclinical testing of antiarrhythmic drugs for CPVT. […] The same doses of ent-B1 were tested in a triple-crossover design with each mouse receiving vehicle (DMSO), 3 mg/kg, and 30 mg/kg with a one-week washout period between experiments. […] ECGs were analyzed in blinded fashion and ventricular arrhythmias quantified. […] We also scored the mice based on the ventricular arrhythmia severity, i.e., premature ventricular complexes (PVCs)<bigeminy<couplets<ventricular tachycardia. […]

RyR2 = biological target: T1, RyR2 (Mus musculus, UniProt E9Q401); test: Intracellular Ca2+ measurements / spontaneous Ca2+ release in intact Casq2-/- cardiomyocytes; type: cell-based
T1 construct: spontaneous openings of intracellular RyR2 Ca^2+ release channels; endogenous in cells; host or cells: ventricular cardiomyocytes isolated from Casq2-/- mice (saponin-permeabilized in A1, intact in A7)
Procedure: FIGS. 4(A-G) show intracellular Ca2+ measurements from intact Casq2−/− cardiomyocytes. […] For panels A-D and G, N=26, 30, 30, 30, and 31 cells for DMSO, 0.03, 0.1, 1, and 3 μM ent-B1, respectively. For panels E and F, N=14, 27, 29, 29, and 30 cells for DMSO, 0.03, 0.1, 1, and 3 μM ent-B1, respectively. Data are shown as mean±SD with individual data points.
FIGS. 10(A-B) show the spontaneous Ca^2+ release in intact mouse Casq2^−/− cardiomyocytes. […] Cells were field stimulated at 3 Hz for 20 s before recording. Blue marks indicate final stimulations of pacing train, arrows SCR events. Recording duration was 40 s before 10 mM caffeine application to assess total SR Ca^2+ content. […] Data are shown as mean±SD.
Intracellular Ca^2+ measurements in intact cardiomyocytes—Ventricular cardiomyocytes were isolated from two male 10-week old and one female 13-week old Casq2^−/− mouse as described previously (Knollmann et al., 2006). Cardiomyocytes were pre-incubated for 2 hours with DMSO or ent-B1. Myocytes were then loaded with Fura-2 acetoxymethyl ester (Fura-2 AM; Invitrogen) as described previously (Batiste et al., 2019). Briefly, isolated single ventricular myocytes were incubated with 2 μM Fura-2 AM for 7 minutes to load the indicator in the cytosol. Myocytes were then washed twice for 10 minutes with normal Tyrode (NT) solution containing 250 μM probenecid (all solutions also contained either vehicle [DMSO] or ent-B1). The composition of NT used for Fura-2 loading and washing was (in mM): 134 NaCl, 5.4 KCl, 1.2 CaCl2, 1 MgCl2, 10 glucose, and 10 HEPES, pH adjusted to 7.4 with NaOH. After Fura-2 loading, all experiments were conducted in NT solution containing 1 μM isoproterenol and 2 mM CaCl2. Fura2-loaded myocytes were electrically paced at 3 Hz field stimulation and Ca transients were recorded for 20 seconds followed by no electrical stimulation for 40 seconds to record spontaneous Ca release events. After that, myocytes were perfused with 10 mM caffeine in NT solution for 5 seconds to estimate total SR Ca content. Fura-2 was measured using a dual-beam excitation fluorescence photometry setup (IonOptix Corp.) and analyzed using commercially available data analysis software (IonWizard, IonOptix, Milton, MA). All experiments were conducted at room temperature.
as §1

[1] = 3 μM (only the highest concentration tested)

T1 sequence (E9Q401 whole entry): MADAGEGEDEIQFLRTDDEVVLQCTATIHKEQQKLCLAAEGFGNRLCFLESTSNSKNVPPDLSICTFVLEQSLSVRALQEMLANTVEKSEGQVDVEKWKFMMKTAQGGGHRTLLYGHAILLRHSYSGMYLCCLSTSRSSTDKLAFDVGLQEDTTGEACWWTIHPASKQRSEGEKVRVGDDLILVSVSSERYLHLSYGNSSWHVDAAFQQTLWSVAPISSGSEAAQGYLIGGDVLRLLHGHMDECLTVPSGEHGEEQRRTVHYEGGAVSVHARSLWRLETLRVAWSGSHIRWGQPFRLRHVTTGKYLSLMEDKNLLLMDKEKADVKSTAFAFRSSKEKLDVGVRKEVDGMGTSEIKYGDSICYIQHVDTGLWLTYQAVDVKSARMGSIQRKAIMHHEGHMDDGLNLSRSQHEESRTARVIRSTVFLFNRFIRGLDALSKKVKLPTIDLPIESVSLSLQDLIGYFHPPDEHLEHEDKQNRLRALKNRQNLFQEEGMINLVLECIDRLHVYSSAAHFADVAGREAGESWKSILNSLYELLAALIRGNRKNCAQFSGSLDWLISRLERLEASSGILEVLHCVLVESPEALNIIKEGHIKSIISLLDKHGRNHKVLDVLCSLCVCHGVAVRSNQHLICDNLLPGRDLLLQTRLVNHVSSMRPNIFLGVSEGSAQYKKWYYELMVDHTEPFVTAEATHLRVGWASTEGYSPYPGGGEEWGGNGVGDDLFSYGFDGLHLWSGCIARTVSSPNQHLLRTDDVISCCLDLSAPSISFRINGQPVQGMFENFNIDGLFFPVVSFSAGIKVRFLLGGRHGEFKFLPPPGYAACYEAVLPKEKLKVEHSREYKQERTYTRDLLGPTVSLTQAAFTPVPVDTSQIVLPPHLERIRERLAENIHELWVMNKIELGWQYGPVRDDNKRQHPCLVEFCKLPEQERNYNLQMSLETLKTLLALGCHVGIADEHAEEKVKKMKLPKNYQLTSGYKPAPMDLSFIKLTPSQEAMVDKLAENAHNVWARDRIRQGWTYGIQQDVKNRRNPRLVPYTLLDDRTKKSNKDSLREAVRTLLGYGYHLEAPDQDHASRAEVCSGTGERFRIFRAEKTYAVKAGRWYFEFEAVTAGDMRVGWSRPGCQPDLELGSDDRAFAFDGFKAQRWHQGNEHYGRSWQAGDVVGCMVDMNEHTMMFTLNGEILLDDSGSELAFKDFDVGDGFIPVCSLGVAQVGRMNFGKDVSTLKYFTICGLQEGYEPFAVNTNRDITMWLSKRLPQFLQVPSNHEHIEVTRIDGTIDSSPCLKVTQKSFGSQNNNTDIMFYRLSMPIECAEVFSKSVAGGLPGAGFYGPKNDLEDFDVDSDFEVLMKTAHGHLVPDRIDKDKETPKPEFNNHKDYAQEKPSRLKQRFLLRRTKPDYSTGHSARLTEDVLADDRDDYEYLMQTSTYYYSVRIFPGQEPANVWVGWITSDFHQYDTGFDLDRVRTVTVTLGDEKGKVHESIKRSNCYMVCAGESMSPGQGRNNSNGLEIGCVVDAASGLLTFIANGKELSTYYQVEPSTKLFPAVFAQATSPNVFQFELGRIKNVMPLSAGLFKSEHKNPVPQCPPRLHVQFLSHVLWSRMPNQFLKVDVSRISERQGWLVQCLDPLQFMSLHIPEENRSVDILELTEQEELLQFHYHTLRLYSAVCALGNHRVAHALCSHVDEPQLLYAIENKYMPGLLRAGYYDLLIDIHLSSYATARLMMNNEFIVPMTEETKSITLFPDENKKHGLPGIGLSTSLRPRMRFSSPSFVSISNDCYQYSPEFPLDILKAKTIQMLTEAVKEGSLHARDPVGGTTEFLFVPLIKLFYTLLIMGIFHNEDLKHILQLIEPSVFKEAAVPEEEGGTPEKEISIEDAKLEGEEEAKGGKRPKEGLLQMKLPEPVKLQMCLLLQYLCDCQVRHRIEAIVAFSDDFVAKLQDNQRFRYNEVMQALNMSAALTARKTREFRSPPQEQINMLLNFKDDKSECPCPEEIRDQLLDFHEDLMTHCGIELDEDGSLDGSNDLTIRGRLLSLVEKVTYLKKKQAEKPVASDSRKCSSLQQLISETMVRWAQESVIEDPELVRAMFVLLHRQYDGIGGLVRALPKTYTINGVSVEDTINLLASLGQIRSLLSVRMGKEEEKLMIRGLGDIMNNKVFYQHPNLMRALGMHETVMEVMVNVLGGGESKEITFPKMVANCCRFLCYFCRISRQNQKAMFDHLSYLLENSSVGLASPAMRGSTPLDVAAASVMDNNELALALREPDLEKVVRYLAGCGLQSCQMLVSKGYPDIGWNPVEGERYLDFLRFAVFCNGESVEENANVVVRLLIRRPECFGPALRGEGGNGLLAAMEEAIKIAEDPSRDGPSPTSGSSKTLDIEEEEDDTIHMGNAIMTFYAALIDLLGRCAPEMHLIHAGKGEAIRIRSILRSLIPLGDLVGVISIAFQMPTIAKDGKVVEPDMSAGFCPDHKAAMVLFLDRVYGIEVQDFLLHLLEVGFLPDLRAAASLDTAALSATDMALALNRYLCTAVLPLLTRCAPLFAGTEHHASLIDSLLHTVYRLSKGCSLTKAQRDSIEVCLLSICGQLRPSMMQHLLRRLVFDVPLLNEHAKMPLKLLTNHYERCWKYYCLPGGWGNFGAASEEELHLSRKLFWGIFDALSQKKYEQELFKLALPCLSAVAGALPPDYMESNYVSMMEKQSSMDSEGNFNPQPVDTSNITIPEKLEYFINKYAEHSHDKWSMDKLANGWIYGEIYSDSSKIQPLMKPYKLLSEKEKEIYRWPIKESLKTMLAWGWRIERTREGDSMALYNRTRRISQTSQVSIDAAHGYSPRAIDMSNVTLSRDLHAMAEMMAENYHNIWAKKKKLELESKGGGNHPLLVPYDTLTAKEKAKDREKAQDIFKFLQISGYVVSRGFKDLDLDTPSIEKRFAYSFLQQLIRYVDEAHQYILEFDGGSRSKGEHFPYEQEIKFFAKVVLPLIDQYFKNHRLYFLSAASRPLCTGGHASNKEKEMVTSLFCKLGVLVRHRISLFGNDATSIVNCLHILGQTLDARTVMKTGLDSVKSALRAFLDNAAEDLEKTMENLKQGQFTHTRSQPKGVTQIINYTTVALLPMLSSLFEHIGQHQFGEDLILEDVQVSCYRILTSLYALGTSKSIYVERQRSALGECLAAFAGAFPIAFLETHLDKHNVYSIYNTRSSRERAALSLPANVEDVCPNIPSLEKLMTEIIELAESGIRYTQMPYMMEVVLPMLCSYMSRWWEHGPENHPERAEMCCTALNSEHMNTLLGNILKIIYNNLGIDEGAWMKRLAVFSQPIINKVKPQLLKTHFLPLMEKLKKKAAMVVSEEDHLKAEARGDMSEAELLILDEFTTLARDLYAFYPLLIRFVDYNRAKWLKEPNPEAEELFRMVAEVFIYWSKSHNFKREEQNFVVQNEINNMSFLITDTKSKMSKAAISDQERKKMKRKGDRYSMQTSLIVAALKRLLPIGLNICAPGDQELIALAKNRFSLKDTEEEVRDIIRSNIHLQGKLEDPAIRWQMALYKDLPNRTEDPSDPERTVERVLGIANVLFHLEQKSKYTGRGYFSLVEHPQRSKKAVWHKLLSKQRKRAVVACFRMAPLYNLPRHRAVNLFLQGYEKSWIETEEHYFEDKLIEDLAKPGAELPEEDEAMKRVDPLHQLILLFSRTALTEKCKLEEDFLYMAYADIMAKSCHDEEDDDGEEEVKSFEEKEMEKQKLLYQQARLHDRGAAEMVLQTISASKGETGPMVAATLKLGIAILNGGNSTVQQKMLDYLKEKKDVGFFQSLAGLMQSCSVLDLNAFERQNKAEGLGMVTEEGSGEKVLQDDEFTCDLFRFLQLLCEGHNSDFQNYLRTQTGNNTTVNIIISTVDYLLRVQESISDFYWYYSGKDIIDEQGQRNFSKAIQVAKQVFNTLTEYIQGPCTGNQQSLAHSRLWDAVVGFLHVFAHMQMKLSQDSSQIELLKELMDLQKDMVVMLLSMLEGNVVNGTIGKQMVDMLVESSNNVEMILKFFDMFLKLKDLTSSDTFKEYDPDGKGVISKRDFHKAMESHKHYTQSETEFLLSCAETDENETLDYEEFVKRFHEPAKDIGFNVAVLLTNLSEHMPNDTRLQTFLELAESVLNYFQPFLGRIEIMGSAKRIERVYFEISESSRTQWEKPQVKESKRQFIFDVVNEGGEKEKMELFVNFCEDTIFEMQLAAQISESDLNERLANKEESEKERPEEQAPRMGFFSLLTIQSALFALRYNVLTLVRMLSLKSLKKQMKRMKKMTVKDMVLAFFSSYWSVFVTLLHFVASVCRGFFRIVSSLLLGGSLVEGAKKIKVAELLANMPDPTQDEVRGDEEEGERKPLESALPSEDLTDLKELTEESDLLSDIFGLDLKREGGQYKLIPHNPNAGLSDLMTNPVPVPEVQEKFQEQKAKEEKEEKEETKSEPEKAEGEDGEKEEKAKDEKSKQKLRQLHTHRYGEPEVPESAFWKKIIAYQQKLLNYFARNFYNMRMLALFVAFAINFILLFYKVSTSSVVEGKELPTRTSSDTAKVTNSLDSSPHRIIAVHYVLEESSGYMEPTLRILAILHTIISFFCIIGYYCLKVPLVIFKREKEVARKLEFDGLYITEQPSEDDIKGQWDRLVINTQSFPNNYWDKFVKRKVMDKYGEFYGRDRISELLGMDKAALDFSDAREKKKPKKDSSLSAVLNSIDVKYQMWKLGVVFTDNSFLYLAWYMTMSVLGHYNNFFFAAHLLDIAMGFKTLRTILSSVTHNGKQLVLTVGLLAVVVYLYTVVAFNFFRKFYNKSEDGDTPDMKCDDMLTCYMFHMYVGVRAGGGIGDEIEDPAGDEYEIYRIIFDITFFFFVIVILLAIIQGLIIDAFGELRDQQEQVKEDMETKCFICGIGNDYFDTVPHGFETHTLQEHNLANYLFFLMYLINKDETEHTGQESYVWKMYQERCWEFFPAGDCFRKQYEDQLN

With `CCCCC[C@@H]1OC(=O)[C@@H](C)N(C)C(=O)[C@H](CCCCC)OC(=O)[C@@H](C)N(C)C(=O)[C@H](CCCCC)OC(=O)[C@@H](C)N(C)C1=O` (single isomer, unassigned) [ent-B1] the “reduction in ventricular ectopy burden” value (Casq2-/- mice; 30 mg/kg i.p., Casq2-/- mice, isoproterenol challenge) was 70%, the “incidence of VT” value (Casq2-/- mice; 3 and 30 mg/kg i.p. vs vehicle) was “dose-dependent reduction” and the “number of total ectopic beats” value (Casq2-/- mice; 3 and 30 mg/kg i.p. vs vehicle) was “dose-dependent reduction”. For the same molecule, the “suppression of ventricular tachycardia” value (Casq2-/- mice; only at the higher dose tested, 30 mg/kg) was “statistically significant suppression”, the arrhythmia risk scores (Casq2-/- mice; ordinal scale 0-4, vs vehicle) was “lower” and the “Ca2+ decay kinetics (indicator of SERCA2 SR uptake rate)” value (RyR2) was “no effect”. The “time-to-peak of Ca2+ transients” value (RyR2) was “no effect”, the “amplitude of the caffeine-induced Ca2+ transient” value (RyR2; [1]) was “reduced” and the “amplitude of the systolic Ca2+ transient” value (RyR2; [1]) was “reduced”. The “diastolic Ca2+ levels” value (RyR2; [1]) was “reduced”.
